Source: US7501430B2 (ArQule, Inc., priority 2006, dated 2009)

molecular target: T1, mutant B-RAF (Homo sapiens, UniProt P15056, V600E); assay: RAF biochemical assay (MEK-1 phosphorylation, anti-phospho MEK1/2 detection); conditions: not given
T1 construct: purchased Upstate (Charlottesville, Va.)
Procedure, shortened: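 Detection is by ELISA: after a 30 min room-temperature reaction, plate-captured GST-MEK-1 is probed with anti-phospho MEK1/2, then an AP-tagged secondary antibody with fluorescent Attophos read-out.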

T1 sequence (P15056 whole entry V600E): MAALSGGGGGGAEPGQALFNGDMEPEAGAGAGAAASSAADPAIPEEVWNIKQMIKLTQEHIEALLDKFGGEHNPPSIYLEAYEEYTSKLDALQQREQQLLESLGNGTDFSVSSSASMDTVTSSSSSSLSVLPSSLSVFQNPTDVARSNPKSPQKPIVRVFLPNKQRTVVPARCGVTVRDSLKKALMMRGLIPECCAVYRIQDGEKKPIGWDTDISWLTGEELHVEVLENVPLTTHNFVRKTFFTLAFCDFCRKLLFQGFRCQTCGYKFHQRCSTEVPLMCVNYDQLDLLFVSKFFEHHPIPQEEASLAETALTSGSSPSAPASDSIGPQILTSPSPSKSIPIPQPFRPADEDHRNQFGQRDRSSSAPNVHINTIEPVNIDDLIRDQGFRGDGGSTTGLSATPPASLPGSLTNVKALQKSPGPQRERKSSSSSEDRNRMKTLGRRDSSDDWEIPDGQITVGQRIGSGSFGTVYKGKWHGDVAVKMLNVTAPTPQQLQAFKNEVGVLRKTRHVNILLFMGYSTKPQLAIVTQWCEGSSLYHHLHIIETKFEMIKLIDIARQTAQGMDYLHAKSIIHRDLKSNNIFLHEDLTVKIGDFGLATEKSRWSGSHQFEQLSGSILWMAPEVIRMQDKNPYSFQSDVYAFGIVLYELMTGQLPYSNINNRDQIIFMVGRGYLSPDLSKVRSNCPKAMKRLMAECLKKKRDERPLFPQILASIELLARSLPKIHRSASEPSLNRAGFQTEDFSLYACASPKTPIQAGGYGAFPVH

`O=C(c1ccncc1)N1CCC[C@@H](Nc2nccc(-c3c(-c4ccc(F)cc4)nc4occn34)n2)C1` [Example 32, 4-[6-(4-fluorophenyl)imi-dazo[2,1-b][1,3]oxazol-5-yl]-N-[(3R)-1-isonicotinoylpiper-idin-3-yl]pyrimidin-2-amine] was tested, and the IC50 was 0.362 µM.

same assay, conditions: @ 10 uM

With `COc1ccc(S(=O)(=O)N2CCC[C@@H](Nc3nccc(-c4c(-c5ccc(F)cc5)nc5occn45)n3)C2)cc1` [Example 44, 4-[6-(4-fluorophenyl)imi-dazo[2,1-b][1,3]oxazol-5-yl]-N-{(3R)-1-[(4-methoxy-phenyl)sulfonyl]piperidin-3-yl}pyrimidin-2-amine] the “Mutant B-RAF % inhibition” value was 45 @ 10 uM %.

same assay, conditions: @ 10 uM; read-out: Mutant B-RAF % inhibition

Point of comparison: `O=S(=O)(c1cccc(Cl)c1)N1CCC[C@@H](Nc2nccc(-c3c(-c4ccc(F)cc4)nc4occn34)n2)C1` [Example 50, N-{(3R)-1-[(3-chlorophenyl)sulfonyl]piper-idin-3-yl}-4-[6-(4-fluorophenyl)imidazo[2,1-b][1,3]oxazol-5-yl]pyrimidin-2-amine], inhibition at 10 µM 35%. Against it:
- O=C(Cc1ccc(F)cc1)N1CCC(Nc2nccc(-c3c(-c4ccc(F)cc4)nc4occn34)n2)CC1 [Example 179, N-{1-[(4-fluorophenyl)acetyl]piperidin-4-yl}-4-[6-(4-fluorophenyl)imidazo[2,1-b][1,3]oxazol-5-yl]pyrimidin-2-amine] — lower, 29%
- O=C(NCc1ccco1)N1CCC[C@@H](Nc2nccc(-c3c(-c4ccc(F)c(F)c4)nc4sccn34)n2)C1 [Example 88, (3R)-3-({4-[6-(3,4-difluorophenyl)imidazo[2,1-b][1,3]thiazol-5-yl]pyrimidin-2-yl}amino)-N-(2-furylmethyl)piperidine-1-carboxamide] — higher, 54%
- Cc1ccccc1-c1nc2occn2c1-c1ccnc(NC2CCN(S(C)(=O)=O)CC2)n1 [Example 308, 4-[6-(2-methylphenyl)imidazo[2,1-b][1,3]oxazol-5-yl]-N-(1-(methylsulfonyl)piperidin-4-yl]pyrimidin-2-amine] — higher, 45%
- O=S(=O)(c1cc(Cl)cc(Cl)c1)N1CCC[C@@H](Nc2nccc(-c3c(-c4ccc(F)cc4)nc4occn34)n2)C1 [Example 51, N-{(3R)-1-[(3,5-dichlorophenyl)sulfonyl]pip-eridin-3-yl}-4-[6-(4-fluorophenyl)imidazo[2,1-b][1,3]oxazol-5-yl]pyrimidin-2-amine] — lower, 25%
- Nc1c(Cl)c(Cl)nc(C(=O)N2CCC(Nc3nccc(-c4c(-c5ccc(F)cc5)nc5occn45)n3)CC2)c1Cl [Example 209, N-{1-[(4-amino-3,5,6-trichloropyridin-2-yl)carbonyl]piperidin-4-yl}-4-[6-(4-fluorophenyl)imidazo[2,1-b][1,3]oxazol-5-yl]pyrimidin-2-amine] — higher, 49%
- O=S(=O)(c1ccc(Cl)cc1)N1CC[C@H](Nc2nccc(-c3c(-c4ccc(F)cc4)nc4sccn34)n2)C1 [Example 276, N-{(3S)-1-[(4-chlorophenyl)sulfonyl]pyrrolidin-3-yl}-4-[6-(4-fluorophenyl)imidazo[2,1-b][1,3]thiazol-5-yl]pyrimidin-2-amine] — higher, 95%

same assay, conditions: read-out: Mutant B-RAF % inhibition

With `O=C(N1CCOCC1)N1CCC[C@@H](Nc2nccc(-c3c(-c4ccc(F)cc4)nc4occn34)n2)C1` [Example 41, 4-[6-(4-fluorophenyl)imi-dazo[2,1-b][1,3]oxazol-5-yl]-N-[(3R)-1-(morpholin-4-ylcarbonyl)piperidin-3-yl]pyrimidin-2-amine] the inhibition at 10 µM was 38%.

same assay, conditions: read-out: Mutant B-RAF IC50

Point of comparison: `O=S(=O)(c1ccc(F)cc1)N1CCC(Nc2nccc(-c3c(-c4ccc5c(c4)OCCO5)nc4sccn34)n2)CC1` [Example 260, 4-[6-(2,3-dihydro-1,4-benzodioxin-6-yl)imidazo[2,1-b][1,3]thiazol-5-yl]-N-{1-[(4-fluorophenyl)sulfonyl]piperidin-4-yl}pyrimidin-2-amine], IC50 0.186 µM. Against it:
- COc1cccc(-c2nc3sccn3c2-c2ccnc(NC3CCN(S(=O)(=O)c4ccc(Cl)cc4)CC3)n2)c1 [Example 263, N-{1-[(4-chlorophenyl)sulfonyl]piperidin-4-yl}-4-[6-(3-methoxyphenyl)imidazo[2,1-b][1,3]thiazol-5-yl]pyrimidin-2-amine] — higher, > 5 µM
- O=Cc1cccc(-c2nc3sccn3c2-c2ccnc(N[C@@H]3CCCN(S(=O)(=O)c4ccc(Cl)cc4)C3)n2)c1 [Example 390, 3-{5-[2-({(3R)-1-[(4-chlorophenyl)sulfonyl]piperidin-3-yl}amino)pyrimidin-4-yl]imidazo[2,1-b][1,3]thiazol-6-yl}benzaldehyde] — 1.5-fold higher, 0.28 µM
- O=S(=O)(c1ccc(O)cc1)N1CCC[C@@H](Nc2nccc(-c3c(-c4cccc(O)c4)nc4sccn34)n2)C1 [Example 150, 3-{5-[2-({(3R)-1-[(4-hydroxyphenyl)sulfonyl]piperidin-3-yl}amino)pyrimidin-4-yl]imidazo[2,1-b][1,3]thiazol-6-yl}phenol] — 21-fold lower, 0.009 µM
- O=[N+]([O-])c1ccccc1-c1nc2sccn2c1-c1ccnc(N[C@@H]2CCCN(S(=O)(=O)c3ccc(Cl)cc3)C2)n1 [Example 131, N-{(3R)-1-[(4-chlorophenyl)sulfonyl]piperidin-3-yl}-4-[6-(2-nitrophenyl)imidazo[2,1-b][1,3]thiazol-5-yl]pyrimidin-2-amine] — 7.4-fold lower, 0.025 µM
- COc1ccccc1-c1nc2sccn2c1-c1ccnc(N[C@@H]2CCCNC2)n1 [Example 102, 4-[6-(2-methoxyphenyl)imidazo[2,1-b][1,3]thiazol-5-yl]-N-[(3R)-piperidin-3-yl]pyrimidin-2-amine] — 6.9-fold higher, 1.28 µM
- Cn1ccc(S(=O)(=O)N2CCC[C@@H](Nc3nccc(-c4c(-c5cccc(O)c5)nc5sccn45)n3)C2)n1 [Example 376, 3-{5-[2-({(3R)-1-[(1-methyl-1H-pyrazol-3-yl)sulfonyl]piperidin-3-yl}amino)pyrimidin-4-yl]imidazo[2,1-b][1,3]thiazol-6-yl}phenol] — 190-fold lower, 0.001 µM
- O=S(=O)(Cc1ccccc1)N1CCC[C@@H](Nc2nccc(-c3c(-c4cccc(O)c4)nc4occn34)n2)C1 [Example 391, 3-[5-(2-{[(3R)-1-(benzylsulfonyl)piperidin-3-yl]amino}pyrimidin-4-yl)imidazo[2,1-b][1,3]oxazol-6-yl]phenol] — higher, > 3 µM
- O=S(=O)(c1ccc(Cl)cc1)N1CCC[C@@H](Nc2nccc(-c3c(-c4ccc(O)cc4)nc4sccn34)n2)C1 [Example 110, 4-{5-[2-({(3R)-1-[(4-chlorophenyl)sulfonyl]piperidin-3-yl}amino)pyrimidin-4-yl]imidazo[2,1-b][1,3]thiazol-6-yl}phenol] — higher, > 5 µM
- Nc1cccc(-c2nc3sccn3c2-c2ccnc(N[C@@H]3CCCN(S(=O)(=O)c4ccc(Cl)cc4)C3)n2)c1 [Example 122, 4-[6-(3-aminophenyl)imidazo[2,1-b][1,3]thiazol-5-yl]-N-{(3R)-1-[(4-chlorophenyl)sulfonyl]piper-idin-3-yl}pyrimidin-2-amine] — 2.3-fold higher, 0.429 µM
- O=S(=O)(c1ccsc1)N1CCC[C@@H](Nc2nccc(-c3c(-c4cccc(O)c4)nc4sccn34)n2)C1 [Example 367, 3-[5-(2-{[(3R)-1-(3-thienylsulfonyl)piperidin-3-yl]amino}pyrimidin-4-yl)imidazo[2,1-b][1,3]thiazol-6-yl]phenol] — 62-fold lower, 0.003 µM
- O=S(=O)(c1cc(Cl)cc(Cl)c1)N1CCC(Nc2nccc(-c3c(-c4ccc(F)cc4)nc4occn34)n2)CC1 [Example 205, N-{1-[(3,5-dichlorophenyl)sulfonyl]piperidin-4-yl}-4-[6-(4-fluorophenyl)imidazo[2,1-b][1,3]oxazol-5-yl]pyrimidin-2-amine] — 5.3-fold higher, 0.981 µM
- O=C(O)c1ccc(-c2nc3sccn3c2-c2ccnc(N[C@@H]3CCCN(S(=O)(=O)c4ccc(Cl)cc4)C3)n2)cc1 [Example 127, 4-{5-[2-({(3R)-1-[(4-chlorophenyl)sulfonyl]piperidin-3-yl}amino)pyrimidin-4-yl]imidazo[2,1-b][1,3]thiazol-6-yl}benzoic acid] — higher, > 3 µM
- COc1cccc(-c2nc3sccn3c2-c2ccnc(NC3CCNCC3)n2)c1 [Example 208, 4-[6-(3-methoxyphenyl)imidazo[2,1-b][1,3]thiazol-5-yl]-N-piperidin-4-ylpyrimidin-2-amine] — 16-fold higher, 2.93 µM
- O=C(O)c1ccc(-c2nc3sccn3c2-c2ccnc(N[C@@H]3CCCN(S(=O)(=O)c4ccc(Cl)cc4)C3)n2)cc1O [Example 133, 4-{5-[2-({(3R)-1-[(4-chlorophenyl)sulfonyl]piperidin-3-yl}amino)pyrimidin-4-yl]imidazo[2,1-b][1,3]thiazol-6-yl}-2-hydroxybenzoic acid] — 4.5-fold higher, 0.84 µM
- COc1cccc(-c2nc3sccn3c2-c2ccnc(N[C@@H]3CCCN(S(=O)(=O)c4ccc(F)cc4)C3)n2)c1 [Example 82, N-{(3R)-1-[(4-fluorophenyl)sulfonyl]piper-idin-3-yl}-4-(6-(3-methoxyphenyl)imidazo[2,1-b][1,3]thiazot-5-yl]pyrimidin-2-amine] — within 1.5-fold, 0.192 µM
- O=C(Nc1ccc(O)cc1)N1CCC[C@@H](Nc2nccc(-c3c(-c4cccc(O)c4)nc4sccn34)n2)C1 [Example 343, (3R)-N-(4-hydroxyphenyl)-3-({4-[6-(3-hydroxyphenyl)imidazo[2,1-b][1,3]thiazol-5-yl]pyrimidin-2-yl}amino)piperidine-1-carboxamide] — 7.7-fold higher, 1.44 µM
- O=C(O)CCc1ccc(S(=O)(=O)N2CCC(Nc3nccc(-c4c(-c5cccc(O)c5)nc5sccn45)n3)CC2)cc1 [Example 273, 3-(4-{[4-({4-[6-(3-hydroxyphenyl)imidazo[2,1-b][1,3]thiazol-5-yl]pyrimidin-2-yl}amino)piperidin-1-yl]sulfonyl}phenyl)propanoic acid] — 19-fold lower, 0.01 µM

same assay, conditions: read-out: Mutant B-RAF IC50 (uM) or % inhibition

In the case of `CC(=O)c1ccc(-c2nc3sccn3c2-c2ccnc(N[C@@H]3CCCN(S(=O)(=O)c4ccc(Cl)cc4)C3)n2)cc1` [Example 400, 1-(4-{5-[2-({(3R)-1-[(4-chlorophenyl)sulfonyl]piperidin-3-yl}amino)pyrimidin-4-yl]imidazo[2,1-b][1,3]thiazol-6-yl}phenyl)ethanone], the IC50 is reported as 1.3 µM.
